Values joined by “and” are separate entries in the source; they are usually repeats but may differ in a detail not shown here. Equal values may be shown once. Bridges are numbered along the chain shown (N, C = ends). Where no end group is shown, it is not given here.
Tests used:
[1] = test system: mouse brain endothelial bEnd.3 cells; assay: Transendothelial electrical resistance (TEER) of mouse brain endothelial cell monolayer on Transwell inserts; type: cell-based; settings: for TEER change relative to control, Average / TEER change relative to control: bEnd.3
Experimental: To determine the effect of NX218 on transendothelial electrical resistance (TEER) of mouse brain endothelial cells, cells were grown on a semi-permeable membrane inserted in culture wells in presence or absence of NX218 and the TEER was recorded using electrodes placed on each side of the membrane and a resistance meter.
Mouse brain endothelial cells (bEnd.3, American Type Culture Collection) were cultured in Dulbecco's modified Eagle's Medium (DMEM) supplemented with 10% fetal bovine serum (FBS) and 2 mM sodium pyruvate in a 5% CO2 incubator at 37° C.
bEnd.3 cells were grown on 6.5-mm-diameter, 0.4-μm-pore, polyester membrane HTS Transwell inserts (5×10^4 cells per well containing 200 μL and 800 μL of culture medium in the apical and basolateral compartments respectively). Three days after seeding, cells were treated with vehicle or NX218 (1, 10 and 100 μM) for 1, 2 or 3 days. TEER values were measured using an EVOM resistance meter fitted with “chopstick” electrodes. One electrode was placed in the apical chamber and another one in the basolateral chamber. Before measurements, chambers were replaced with fresh medium.

[2] = test system: Occludin in mouse brain endothelial bEnd.3 cells; assay: Occludin western blot in mouse brain endothelial cell cultures; type: cell-based; settings: for Expression of Occludin, Average: average of N1-N8
Experimental: To understand the effect of NX218 on the TEER and permeability of mouse brain endothelial cells, the levels of the tight junction protein Occludin were assessed using Western Blot.
Mouse brain endothelial cells (bEnd.3, American Type Culture Collection) were cultured in DMEM supplemented with 10% fetal FBS and 2 mM sodium pyruvate in a 5% CO2 incubator at 37° C.
bEnd.3 cells were seeded on 12-well plates (2.5×10^5 cells per well in 1,000 μL) for western-blot analyses. Two days after seeding, cells were treated with vehicle or NX218 (1, 10 and 100 μM) for 24 hours. Proteins were isolated from the cell layers with lysis buffer (62.5 mM Tris, 2% SDS, 10 mM dithiothreitol, 10 μL protease inhibitor cocktail/100 mL (Sigma-Aldrich)), centrifugated at 12,000 r.p.m for 20 min at 4° C., and supernatants were used for analysis of tight junction proteins. Protein concentrations were determined with the Pierce BCA protein assay (Thermo Scientific). Ten (10) μL of samples and standards (working range=125-2000 μg/mL) were loaded in duplicate into a 96-well plate and 200 μL of working reagent (50 parts BCA reagent A with 1 part BCA reagent B) were added to each well, mixed on a shaker and incubated at 37° C. for 30 min. The plate was cooled to RT and the absorbance read at 562 nm. Protein concentrations were calculated from a standard curve. Ten (10) μg total protein were loaded per well for separation by SDS-polyacrylamide gel electrophoresis (12% acrylamide). Gels were transferred onto methanol-activated polyvinylidene difluoride membranes (Merck Millipore) via semi-dry transfer. Transferred membranes were reactivated with methanol and blocked under slight agitation in tris-buffered saline (TBS)-Tween-20 containing 3% weight/volume Marvel non-fat dry milk for 1 h at RT. Blocked membranes were washed three times with TBS-Tween-20 and treated with primary rabbit polyclonal antibodies against Occludin (Novus Biotech, ref. NBP1-87402, 65 kDa, 1/1000 dilution) overnight at 4° C. Membranes were washed three times for 5 min in TBS-Tween-20 and incubated with horseradish peroxidase-conjugated goat anti-rabbit secondary antibody (A6154, Sigma-Aldrich) diluted 1/2,000 in TBS-Tween-20 for 2 h at RT. Secondary antibody was removed and membranes washed four times for 5 min in TBS-Tween-20. Blots were developed by enhanced chemiluminescence (ECL). A 1:1 mix of WesternBright ECL Luminol/enhancer solution and Peroxide Chemiluminescent solution (Advansta) was incubated at RT for 2 min before being directly added onto washed blots. The LiCor C-Digit Blot Scanner was used to detect chemiluminescence over a 12-minute exposure time.

## W-S-G-W-S-S-C-S-R-S-C-G (WSGWSSCSRSCG; disulfide 7-11 (inferred)) [NX218]
[1]; 10 and 100 μM for 1, 2 or 3 days, compared with vehicle-treated monolayer
  Resistance (TEER), result in words: significantly increased in a dose dependent manner
[1]; FIG. 1, 1, 10, 100 μM for 24 h, 48 h or 72 h
  TEER: increases the transendothelial electrical resistance of mouse brain endothelial cell monolayer in a dose-dependent manner
[1]; NX218 1 μM, 24 hours, average of N1-N6, control = 1
  TEER change relative to control, Average: 1.095
[1]; NX218 1 μM, 24 hours, individual replicates N1-N6
  TEER change relative to control: 1.096 and 1.109 and 0.9761 and 1.051 and 1.197 and 1.139
[1]; NX218 1 μM, 48 hours, average of N1-N9, control = 1
  TEER change relative to control, Average: 1.089
[1]; NX218 1 μM, 48 hours, individual replicates N1-N9
  TEER change relative to control: 1.149 and 1.219 and 1.194 and 0.9888 and 1.006 and 1.056 and 0.9841 and 1.196 and 1.011
[1]; NX218 1 μM, 72 hours, average of N1-N9, control = 1
  TEER change relative to control, Average: 0.9718
[1]; NX218 1 μM, 72 hours, individual replicates N1-N9
  TEER change relative to control: 0.9966 and 1.022 and 1.007 and 1.003 and 0.9525 and 0.9474 and 0.9315 and 0.9406 and 0.9452
[1]; NX218 10 μM, 24 hours, average of N1-N6, control = 1
  TEER change relative to control, Average: 1.128
[1]; NX218 10 μM, 24 hours, individual replicates N1-N6
  TEER change relative to control: 1.027 and 1.068 and 1.072 and 1.178 and 1.212 (2×)
[1]; NX218 10 μM, 48 hours, average of N1-N9, control = 1
  TEER change relative to control, Average: 1.203
[1]; NX218 10 μM, 48 hours, individual replicates N1-N9
  TEER change relative to control: 1.219 (2×) and 1.334 and 1.016 (2×) and 1.053 and 1.28 and 1.381 and 1.312
[1]; NX218 10 μM, 72 hours, average of N1-N9, control = 1
  TEER change relative to control, Average: 1.196
[1]; NX218 10 μM, 72 hours, individual replicates N1-N9
  TEER change relative to control: 1.27 and 1.255 and 1.239 and 1.187 (3×) and 1.151 and 1.146 (2×)
[1]; NX218 100 μM, 24 hours, average of N1-N6, control = 1
  TEER change relative to control, Average: 1.307
[1]; NX218 100 μM, 24 hours, individual replicates N1-N6
  TEER change relative to control: 1.218 and 1.283 and 1.142 and 1.454 and 1.373 and 1.37
[1]; NX218 100 μM, 48 hours, average of N1-N9, control = 1
  TEER change relative to control, Average: 1.461
[1]; NX218 100 μM, 48 hours, individual replicates N1-N9
  TEER change relative to control: 1.547 and 1.404 and 1.498 and 1.223 and 1.284 and 1.173 and 1.725 and 1.72 and 1.571
[1]; NX218 100 μM, 72 hours, average of N1-N9, control = 1
  TEER change relative to control, Average: 1.446
[1]; NX218 100 μM, 72 hours, individual replicates N1-N9
  TEER change relative to control: 1.467 and 1.553 and 1.624 and 1.436 and 1.457 and 1.584 and 1.237 and 1.306 and 1.347
[2]; 1 μM, 24 h, bEnd.3, p=0.0309
  Increase of occludin protein levels vs control: +26.3%
[2]; 10 μM, 24 h, bEnd.3, p=0.0053
  Increase of occludin protein levels vs control: +41.1%
[2]; 100 μM, 24 h, bEnd.3, p=0.0112
  Increase of occludin protein levels vs control: +36.8%
[2]; 1, 10 and 100 μM, 24 h, compared with control
  Occludin protein levels, result in words: significant increase of occludin protein levels
[2]; FIG. 6, 24-hour treatment
  Expression of Occludin: increases the expression of Occludin
[2]; NX218 1 μM, 24 hours, bEnd.3, western blot
  Expression of Occludin, Average: 126.30 % of Control
[2]; NX218 1 μM, 24 hours, bEnd.3, western blot, individual replicates N1-N8
  Expression of Occludin: 124.20 % of Control and 120.60 % of Control and 92.30 % of Control and 152.80 % of Control and 146.80 % of Control and 135.50 % of Control and 125.00 % of Control and 113.00 % of Control
[2]; NX218 10 μM, 24 hours, bEnd.3, western blot
  Expression of Occludin, Average: 141.10 % of Control
[2]; NX218 10 μM, 24 hours, bEnd.3, western blot, individual replicates N1-N8
  Expression of Occludin: 124.20 % of Control and 123.30 % of Control and 114.20 % of Control and 93.50 % of Control and 187.30 % of Control and 166.20 % of Control and 176.60 % of Control and 143.50 % of Control
[2]; NX218 100 μM, 24 hours, bEnd.3, western blot
  Expression of Occludin, Average: 136.80 % of Control
[2]; NX218 100 μM, 24 hours, bEnd.3, western blot, individual replicates N1-N8
  Expression of Occludin: 112.10 % of Control and 103.80 % of Control and 111.20 % of Control and 188.40 % of Control and 123.40 % of Control and 158.40 % of Control and 122.20 % of Control and 174.50 % of Control
